Data published in US8188059B2, “Compounds and methods for modulating expression of GCGR” (Isis Pharmaceuticals, Inc., priority 2006, dated 2012).
Strand notation (5' to 3'): a small letter for the sugar, then the base; units joined by * are phosphorothioate-linked, units joined directly phosphodiester-linked; [ ] holds rarer units or linkages, { } end groups; capitals alone tell only the bases. e = 2'-O-(2-methoxyethyl) (MOE); [5mC] = 5-methylcytosine; d = 2'-deoxy (DNA)

Key:
Format in all cases: in vivo, mouse
[1] = ALT & AST levels, C57/BL6 mice (Example 4, Table 32); conditions: for ALT Pre-Bleed / AST Pre-Bleed: pre-treatment bleed; for ALT Post-Bleed / AST Post-Bleed: 48 hours following injection
Protocol: (§1) Eight-week old male C57/BL6 mice (Jackson Laboratory, Bar Harbor, Me.) were administered a single dose of GCGR oligonucleotide by intraperitoneal injection at a concentration of […]. Each dose group consisted of four animals. Shown in Table 31 are the sequences, motifs and conjugates of the GCGR antisense compounds used in this study. Bolded residues indicate 2′-O-methoxyethyl (2′-MOE) moieties. All compounds comprise phosphorothioate internucleoside linkages throughout and each cytosine is replaced with 5-methylcytosine. ISIS 386626, ISIS 386627 and ISIS 386628 further comprise a C16 conjugate group attached to the 2′-O position of the sugar via a diamide linkage (2′-OCH2C(═O)N(H)(CH2)4N(H)C(═O)—(CH2)15CH3). GCGR antisense compounds target published GCGR sequences, including Genbank® Accession No. BC031885.1 (SEQ ID NO: 7).
(§2) Mice were sacrificed 48 hours following injection to determine serum transaminase levels (Table 32); liver, white adipose tissue (WAT), spleen and kidney weight (Table 33); cholesterol, triglyceride and glucose levels (Table 34); GCGR mRNA levels (Tables 35-41); and full-length and total oligonucleotide concentration in liver and kidney (Table 42). Endpoints were assessed using methods described herein and well known to those of ordinary skill in the art. Data is included from a pre-treatment bleed (Pre-Bleed) and post-treatment bleed (Post-Bleed).

[2] = Triglyceride, cholesterol and glucose levels, pre-bleed and post-bleed (Example 4, Table 34); design: TRIG Pre-Bleed / TRIG Post-Bleed / CHOL Pre-Bleed / CHOL Post-Bleed / Glucose Pre-Bleed / Glucose Post-Bleed: unit not given here; conditions: C57/BL6 mice; for CHOL Pre-Bleed / Glucose Pre-Bleed / TRIG Pre-Bleed: pre-treatment bleed; for CHOL Post-Bleed / Glucose Post-Bleed / TRIG Post-Bleed: post-treatment bleed, 48 h
[3] = Total and full-length antisense compound concentrations in liver and kidney (Example 4, Table 42); conditions: C57/BL6 mice; single i.p. dose; 48 h; dose not given
Protocol: as §1, §2
Treatment with the 2-10-2 MOE gapmers led to a significant dose-dependent decrease in GCGR mRNA expression. […] To determine whether the observed increase in efficiency with the short antisense compounds is due to an increase in antisense compound accumulation, full-length and total antisense compound concentration in the liver and kidney were determined.

GCGR mRNA [4] = assay: GCGR mRNA levels in liver and estimated ED50, C57/BL6 mice, single i.p. dose (Example 5, Tables 44, 45)
Protocol: Eight-week old male C57/BL6 mice (Jackson Laboratory, Bar Harbor, Me.) were administered a single dose of GCGR antisense compound by intraperitonel (i.p.) injection at a concentration of 10, 3.2, 1, and 0.32 μmol·kg. Each dose group consisted of four animals. Shown in Table 43 are the sequences, motifs and conjugates of the GCGR antisense compounds used in this study. Bolded residues indicate 2′-O-methoxyethyl (2′-MOE) modifications and the italicized residues indicate methyleneoxy (4′-CH2—O-2′) BNA modifications. All antisense compounds comprise phosphorothioate internucleoside linkages throughout and each cytosine is replaced with 5-methylcytosine. GCGR antisense compounds target published GCGR nucleic acids, including Genbank Accession No. BC031885.1 (SEQ ID NO: 7).
(§3) To determine whether the phenotypic changes shown above correlated with a decrease in GCGR mRNA, treated animals were evaluated for levels of target mRNA in liver by RT, real time PCR according to methods described herein. Table 44 show results from direct comparisons of the antisense compounds targeting GCGR nucleic acid for their effect on target expression. Results are expressed as percent of saline control.

GCGR mRNA [5] = assay: GCGR mRNA levels in liver of C57/BL6 mice, single i.p. dose (Example 4, Tables 35-41); conditions: 48 h
Protocol: as §1, §2
as §3, with “by” for “by RT,”, “Tables 35 to 41” for “Table 44”

Substance: 148364 (antisense eT*eG*e[5mC]*eA*e[5mC]*dT*dT*dT*dG*dT*dG*dG*dT*dA*d[5mC]*e[5mC]*eA*eA*eG*eG) [compound 148364]
- ALT Pre-Bleed ([1]; 6.25 mg/kg dose group): 28 IU/L
- AST Pre-Bleed ([1]; 6.25 mg/kg dose group): 47 IU/L
- ALT Pre-Bleed ([1]; 12.5 mg/kg dose group): 23 IU/L
- AST Pre-Bleed ([1]; 12.5 mg/kg dose group): 44 IU/L
- ALT Pre-Bleed ([1]; 25 mg/kg dose group): 26 IU/L
- AST Pre-Bleed ([1]; 25 mg/kg dose group): 42 IU/L
- ALT Pre-Bleed ([1]; 50 mg/kg dose group): 24 IU/L
- AST Pre-Bleed ([1]; 50 mg/kg dose group): 40 IU/L
- ALT Post-Bleed ([1]; single i.p. dose 6.25 mg/kg): 34 IU/L
- AST Post-Bleed ([1]; single i.p. dose 6.25 mg/kg): 76 IU/L
- ALT Post-Bleed ([1]; single i.p. dose 12.5 mg/kg): 32 IU/L
- AST Post-Bleed ([1]; single i.p. dose 12.5 mg/kg): 69 IU/L
- ALT Post-Bleed ([1]; single i.p. dose 25 mg/kg): 35 IU/L
- AST Post-Bleed ([1]; single i.p. dose 25 mg/kg): 87 IU/L
- ALT Post-Bleed ([1]; single i.p. dose 50 mg/kg): 40 IU/L
- AST Post-Bleed ([1]; single i.p. dose 50 mg/kg): 115 IU/L
- CHOL Pre-Bleed ([2]; 6.25 mg/kg group): 86
- Glucose Pre-Bleed ([2]; 6.25 mg/kg group): 226
- TRIG Pre-Bleed ([2]; 6.25 mg/kg group): 86
- CHOL Post-Bleed ([2]; 6.25 mg/kg single i.p.): 89
- Glucose Post-Bleed ([2]; 6.25 mg/kg single i.p.): 215
- TRIG Post-Bleed ([2]; 6.25 mg/kg single i.p.): 162
- CHOL Pre-Bleed ([2]; 12.5 mg/kg group): 85
- Glucose Pre-Bleed ([2]; 12.5 mg/kg group): 198
- TRIG Pre-Bleed ([2]; 12.5 mg/kg group): 106
- CHOL Post-Bleed ([2]; 12.5 mg/kg single i.p.): 89
- Glucose Post-Bleed ([2]; 12.5 mg/kg single i.p.): 256
- TRIG Post-Bleed ([2]; 12.5 mg/kg single i.p.): 179
- CHOL Pre-Bleed ([2]; 25 mg/kg group): 83
- Glucose Pre-Bleed ([2]; 25 mg/kg group): 219
- TRIG Pre-Bleed ([2]; 25 mg/kg group): 115
- CHOL Post-Bleed ([2]; 25 mg/kg single i.p.): 96
- Glucose Post-Bleed ([2]; 25 mg/kg single i.p.): 239
- TRIG Post-Bleed ([2]; 25 mg/kg single i.p.): 200
- CHOL Pre-Bleed ([2]; 50 mg/kg group): 81
- Glucose Pre-Bleed ([2]; 50 mg/kg group): 207
- TRIG Pre-Bleed ([2]; 50 mg/kg group): 110
- CHOL Post-Bleed ([2]; 50 mg/kg single i.p.): 94
- Glucose Post-Bleed ([2]; 50 mg/kg single i.p.): 228
- TRIG Post-Bleed ([2]; 50 mg/kg single i.p.): 177
- Full-length antisense compound concentration, Kidney [3]: 58 µg/g
- Full-length antisense compound concentration, Liver [3]: 46 µg/g
- Total antisense compound concentration, Kidney [3]: 90 µg/g
- Total antisense compound concentration, Liver [3]: 54 µg/g
- GCGR mRNA levels in liver (GCGR mRNA [4]; 0.32 μmol/kg single i.p.): 105% of saline control
- GCGR mRNA levels in liver (GCGR mRNA [4]; 1 μmol/kg single i.p.): 106% of saline control
- GCGR mRNA levels in liver (GCGR mRNA [4]; 3.2 μmol/kg single i.p.): 73% of saline control
- GCGR mRNA levels in liver (GCGR mRNA [4]; 10 μmol/kg single i.p.): 38% of saline control
- GCGR mRNA levels in liver (GCGR mRNA [5]; 6.25 mg/kg single i.p., Table 35 comparison ISIS 148364 & ISIS 386626): 62% of saline control
- GCGR mRNA levels in liver (GCGR mRNA [5]; 6.25 mg/kg single i.p., Table 36 comparison ISIS 148364 & ISIS 386627): 86% of saline control
- GCGR mRNA levels in liver (GCGR mRNA [5]; 6.25 mg/kg single i.p., Table 37 comparison ISIS 148364 & ISIS 386593): 86% of saline control
- GCGR mRNA levels in liver (GCGR mRNA [5]; 6.25 mg/kg single i.p., Table 38 comparison ISIS 148364 & ISIS 386628): 101% of saline control
- GCGR mRNA levels in liver (GCGR mRNA [5]; 6.25 mg/kg single i.p., Table 39 comparison ISIS 148364 & ISIS 386594): 96% of saline control
- GCGR mRNA levels in liver (GCGR mRNA [5]; 12.5 mg/kg single i.p., Table 35 comparison ISIS 148364 & ISIS 386626): 87% of saline control
- GCGR mRNA levels in liver (GCGR mRNA [5]; 12.5 mg/kg single i.p., Table 36 comparison ISIS 148364 & ISIS 386627): 105% of saline control
- GCGR mRNA levels in liver (GCGR mRNA [5]; 12.5 mg/kg single i.p., Table 37 comparison ISIS 148364 & ISIS 386593): 105% of saline control
- GCGR mRNA levels in liver (GCGR mRNA [5]; 12.5 mg/kg single i.p., Table 38 comparison ISIS 148364 & ISIS 386628): 98% of saline control
- GCGR mRNA levels in liver (GCGR mRNA [5]; 12.5 mg/kg single i.p., Table 39 comparison ISIS 148364 & ISIS 386594): 102% of saline control
- GCGR mRNA levels in liver (GCGR mRNA [5]; 25 mg/kg single i.p., Table 35 comparison ISIS 148364 & ISIS 386626): 79% of saline control
- GCGR mRNA levels in liver (GCGR mRNA [5]; 25 mg/kg single i.p., Table 36 comparison ISIS 148364 & ISIS 386627): 87% of saline control
- GCGR mRNA levels in liver (GCGR mRNA [5]; 25 mg/kg single i.p., Table 37 comparison ISIS 148364 & ISIS 386593): 74% of saline control
- GCGR mRNA levels in liver (GCGR mRNA [5]; 25 mg/kg single i.p., Table 38 comparison ISIS 148364 & ISIS 386628): 77% of saline control
- GCGR mRNA levels in liver (GCGR mRNA [5]; 25 mg/kg single i.p., Table 39 comparison ISIS 148364 & ISIS 386594): 98% of saline control
- GCGR mRNA levels in liver (GCGR mRNA [5]; 50 mg/kg single i.p., Table 35 comparison ISIS 148364 & ISIS 386626): 36% of saline control
- GCGR mRNA levels in liver (GCGR mRNA [5]; 50 mg/kg single i.p., Table 36 comparison ISIS 148364 & ISIS 386627): 63% of saline control
- GCGR mRNA levels in liver (GCGR mRNA [5]; 50 mg/kg single i.p., Table 37 comparison ISIS 148364 & ISIS 386593): 56% of saline control
- GCGR mRNA levels in liver (GCGR mRNA [5]; 50 mg/kg single i.p., Table 38 comparison ISIS 148364 & ISIS 386628): 42% of saline control
- GCGR mRNA levels in liver (GCGR mRNA [5]; 50 mg/kg single i.p., Table 39 comparison ISIS 148364 & ISIS 386594): 59% of saline control
